Reference: the supplement of paper PMC4862054

Tests used:
Test in all cases: normalised viability (% of control), CellTiter-Blue; higher = more viable cells (about 100 = DMSO control)
[1] = tested on: SK-BR-3; settings: 100 nM; incubation time: 72 h
Procedure: (§1)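 DSRT, CellTiter-Blue viability, 72 h incubation. Signal is normalised to DMSO and benzethonium chloride controls. Value is the normalised response at dose 3.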

[2] = tested on: MDA-MB-468; settings: 100 nM; incubation time: 72 h
Procedure: as §1

[3] = tested on: CAL-51; settings: 10 nM; incubation time: 72 h
Procedure: as §1

[4] = tested on: DU-4475; settings: 10 nM; incubation time: 72 h
Procedure: as §1

[5] = tested on: CAL-85-1; settings: 10 nM; incubation time: 72 h
Procedure: as §1

[6] = tested on: BT-549; settings: 100 nM; incubation time: 72 h
Procedure: as §1

[7] = tested on: HCC1599; settings: 100 nM; incubation time: 72 h
Procedure: as §1

[8] = tested on: HCC1143; settings: 100 nM; incubation time: 72 h
Procedure: as §1

[9] = tested on: MDA-MB-453; settings: 10 nM; incubation time: 72 h
Procedure: as §1

[10] = tested on: MDA-MB-231; settings: 100 nM; incubation time: 72 h
Procedure: as §1

[11] = tested on: MFM-223; settings: 100 nM; incubation time: 72 h
Procedure: as §1

[12] = tested on: Hs578T; settings: 100 nM; incubation time: 72 h
Procedure: as §1

[13] = tested on: HDQ-P1; settings: 10 nM; incubation time: 72 h
Procedure: as §1

[14] = tested on: CAL-120; settings: 100 nM; incubation time: 72 h
Procedure: as §1

[15] = tested on: BT-474; settings: 100 nM; incubation time: 72 h
Procedure: as §1

[16] = tested on: HCC1937; settings: 100 nM; incubation time: 72 h
Procedure: as §1

[17] = tested on: MDA-MB-436; settings: 100 nM; incubation time: 72 h
Procedure: as §1

[18] = tested on: CAL-148; settings: 10 nM; incubation time: 72 h
Procedure: as §1

[19] = tested on: SK-BR-3; settings: incubation time: 72 h
Procedure, shortened: (§2)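 Breast cancer cell lines were treated for 72 h in 384-well format and measured by CellTiter-Blue fluorescence at 560/590 nm. Results were normalised per plate to vehicle (100) and a positive kill control (0). The entry is normalised viability at a single listed concentration of the series.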

[20] = tested on: MDA-MB-468; settings: incubation time: 72 h
Procedure, shortened: as §2

[21] = tested on: CAL-51; settings: incubation time: 72 h
Procedure, shortened: as §2

[22] = tested on: DU-4475; settings: incubation time: 72 h
Procedure, shortened: as §2

[23] = tested on: CAL-85-1; settings: incubation time: 72 h
Procedure, shortened: as §2

[24] = tested on: BT-549; settings: incubation time: 72 h
Procedure, shortened: as §2

[25] = tested on: HCC1599; settings: incubation time: 72 h
Procedure, shortened: as §2

[26] = tested on: HCC1143; settings: incubation time: 72 h
Procedure, shortened: as §2

[27] = tested on: MDA-MB-453; settings: incubation time: 72 h
Procedure, shortened: as §2

[28] = tested on: MDA-MB-231; settings: incubation time: 72 h
Procedure, shortened: as §2

[29] = tested on: MFM-223; settings: incubation time: 72 h
Procedure, shortened: as §2

[30] = tested on: Hs578T; settings: incubation time: 72 h
Procedure, shortened: as §2

[31] = tested on: HDQ-P1; settings: incubation time: 72 h
Procedure, shortened: as §2

[32] = tested on: CAL-120; settings: incubation time: 72 h
Procedure, shortened: as §2

[33] = tested on: BT-474; settings: incubation time: 72 h
Procedure, shortened: as §2

[34] = tested on: HCC1937; settings: incubation time: 72 h
Procedure, shortened: as §2

[35] = tested on: MDA-MB-436; settings: incubation time: 72 h
Procedure, shortened: as §2

[36] = tested on: CAL-148; settings: incubation time: 72 h
Procedure, shortened: as §2

`O=P(O)(O)C(O)(Cn1ccnc1)P(=O)(O)O` [Zoledronic acid] showed a normalised viability [1] of 91%, a normalised viability [2] of 117% and a normalised viability [3] of 116%. It also gave a normalised viability [4] of 97.7%, a normalised viability [5] of 90.2% and a normalised viability [6] of 101%. It also gave a normalised viability [7] of 109%, a normalised viability [8] of 89.1% and a normalised viability [9] of 96.2%. It also gave a normalised viability [10] of 93.9%, a normalised viability [11] of 91.7% and a normalised viability [12] of 85.3%. It also gave a normalised viability [13] of 91.5%, a normalised viability [14] of 94.2% and a normalised viability [15] of 102%. For the same compound, the normalised viability [16] was 102%, the normalised viability [17] was 113% and the normalised viability [18] was 86.5%. For the same compound, the normalised viability ([19]; 10 nM) was 106%, the normalised viability ([19]; 1000 nM) was 93.9% and the normalised viability ([19]; 10000 nM) was 96.5%. It also gave a normalised viability ([20]; 10 nM) of 107%, a normalised viability ([20]; 1000 nM) of 102% and a normalised viability ([20]; 10000 nM) of 111%. The normalised viability ([21]; 3 nM) was 108%, the normalised viability ([21]; 30 nM) was 116% and the normalised viability ([21]; 100 nM) was 102%. It also gave a normalised viability ([22]; 3 nM) of 107%, a normalised viability ([22]; 30 nM) of 95.8% and a normalised viability ([22]; 100 nM) of 99.8%. For the same compound, the normalised viability ([23]; 3 nM) was 91.6%, the normalised viability ([23]; 30 nM) was 83.2% and the normalised viability ([23]; 100 nM) was 96.5%. It also gave a normalised viability ([24]; 10 nM) of 92.5%, a normalised viability ([24]; 1000 nM) of 108% and a normalised viability ([24]; 10000 nM) of 91.3%. The normalised viability ([25]; 10 nM) was 94.1%, the normalised viability ([25]; 1000 nM) was 75.3% and the normalised viability ([25]; 10000 nM) was 95.4%. The normalised viability ([26]; 10 nM) was 82%, the normalised viability ([26]; 1000 nM) was 85.2% and the normalised viability ([26]; 10000 nM) was 85.2%. It also gave a normalised viability ([27]; 3 nM) of 101%, a normalised viability ([27]; 30 nM) of 96% and a normalised viability ([27]; 100 nM) of 101%. The normalised viability ([28]; 10 nM) was 92.2%, the normalised viability ([28]; 1000 nM) was 89.3% and the normalised viability ([28]; 10000 nM) was 95.9%. The normalised viability ([29]; 10 nM) was 99.3%, the normalised viability ([29]; 1000 nM) was 86.5% and the normalised viability ([29]; 10000 nM) was 97.2%. The normalised viability ([30]; 10 nM) was 95.1%, the normalised viability ([30]; 1000 nM) was 113% and the normalised viability ([30]; 10000 nM) was 98.2%. The normalised viability ([31]; 3 nM) was 94.6%, the normalised viability ([31]; 30 nM) was 91.9% and the normalised viability ([31]; 100 nM) was 84.1%. For the same compound, the normalised viability ([32]; 10 nM) was 81.2%, the normalised viability ([32]; 1000 nM) was 98% and the normalised viability ([32]; 10000 nM) was 91.8%. The normalised viability ([33]; 10 nM) was 103%, the normalised viability ([33]; 1000 nM) was 103% and the normalised viability ([33]; 10000 nM) was 117%. It also gave a normalised viability ([34]; 10 nM) of 96.4%, a normalised viability ([34]; 1000 nM) of 95.5% and a normalised viability ([34]; 10000 nM) of 99.7%. It also gave a normalised viability ([35]; 10 nM) of 95%, a normalised viability ([35]; 1000 nM) of 89.2% and a normalised viability ([35]; 10000 nM) of 94.3%. For the same compound, the normalised viability ([36]; 3 nM) was 92.2%, the normalised viability ([36]; 30 nM) was 84.4% and the normalised viability ([36]; 100 nM) was 92.6%.
